pIC50: −log10 of the molar value.
Columns and labels:
LPA3R = target: T1, LPA3R (Homo sapiens, UniProt Q9UBY5); assay: LPA3R antagonist activity (Table 1, calcium flux FLIPR); assay type: cell-based
T1 sequence (Q9UBY5 1-353): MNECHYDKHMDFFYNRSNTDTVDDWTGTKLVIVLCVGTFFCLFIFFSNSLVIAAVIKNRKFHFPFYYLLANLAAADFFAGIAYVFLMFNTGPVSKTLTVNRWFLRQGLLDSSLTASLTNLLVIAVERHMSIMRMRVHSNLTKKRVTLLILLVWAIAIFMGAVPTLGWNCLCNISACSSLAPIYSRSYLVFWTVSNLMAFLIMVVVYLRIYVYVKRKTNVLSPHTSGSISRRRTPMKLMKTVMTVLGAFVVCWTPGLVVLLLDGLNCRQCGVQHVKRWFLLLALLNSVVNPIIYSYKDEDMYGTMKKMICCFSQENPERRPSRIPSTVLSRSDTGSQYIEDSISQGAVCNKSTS
Description: (§1) Calcium Flux Assay Using Fluorometric Imaging Plate Reader (FLIPR)
(§2) After incubation, both the cell and “assay” plates were brought to the FLIPR and 20 μL of the diluted compounds were transferred to the cell plates by the FLIPR. Compound addition was monitored by FLIPR to detect any agonist activity of the compounds. Plates were then incubated for 30 minutes at room temperature protected from light. After the incubation, plates were returned to the FLIPR and 20 μL of 4.5× concentrated agonist was added to the cell plates. During the assay, fluorescence readings were taken simultaneously from all 384 wells of the cell plate every 1.5 seconds. Five readings were taken to establish a stable baseline, then 20 μL of sample was rapidly (30 μL/sec) and simultaneously added to each well of the cell plate. The fluorescence was continuously monitored before, during and after sample addition for a total elapsed time of 100 seconds. Responses (increase in peak fluorescence) in each well following agonist addition was determined. The initial fluorescence reading from each well, prior to ligand stimulation, was used as zero baseline value for the data from that well. The responses were expressed as % inhibition of the buffer control.

[1] = target: human recombinant LPA1 Lysophospholipid receptor (Homo sapiens, UniProt Q92633); assay: Calcium flux assay using FLIPR, LPA1R antagonist activity; assay type: cell-based
Sequence of human recombinant LPA1 Lysophospholipid receptor (Q92633 whole entry): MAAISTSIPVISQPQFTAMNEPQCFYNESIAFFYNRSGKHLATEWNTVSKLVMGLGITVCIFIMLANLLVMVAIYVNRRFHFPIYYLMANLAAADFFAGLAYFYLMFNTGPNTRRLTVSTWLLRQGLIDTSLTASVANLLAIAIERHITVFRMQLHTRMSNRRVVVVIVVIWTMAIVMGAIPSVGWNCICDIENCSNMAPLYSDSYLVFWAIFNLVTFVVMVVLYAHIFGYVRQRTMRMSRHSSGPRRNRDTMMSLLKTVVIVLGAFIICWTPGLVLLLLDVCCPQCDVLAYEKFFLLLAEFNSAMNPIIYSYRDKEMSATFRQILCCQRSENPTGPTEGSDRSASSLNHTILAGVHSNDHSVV
Description: as §1
Cell Culture Conditions: The ChemiScreen Calcium-optimized stable cell line containing the human recombinant LPA1 Lysophospholipid receptor was purchased from Chemicon International, Inc./Millipore. The cells were cultured in DMEM-high glucose supplemented with 10% fetal bovine serum, 2 mM glutamine, 100 U/mL penicillin/100 μg/mL streptomycin, 1× non-essential amino acids, 10 mM HEPES and 0.25 mg/mL Geneticin. Cells were harvested with trypsin-EDTA and counted using ViaCount reagent. The cell suspension volume was adjusted to 2.0×10^5 cells/mL with complete growth media. Aliquots of 50 μL were dispensed into 384 well black/clear tissue culture treated plates (BD) and the microplates were placed in a 37° C. incubator overnight. The following day plates were used in the assay.
Dye Loading and Assay: Loading Buffer (FLIPR Calcium-4, Molecular Devices) was prepared by dissolving the contents of one bottle into 100 mL Hank's Balanced Salt Solution containing 20 mM HEPES and 2.5 mM probenecid. Plates were loaded onto Biotek plate washer and growth media was removed and replaced with 20 µL of Hank's Balanced Salt Solution containing 20 mM HEPES and 2.5 mM probenecid, followed by 25 μL of Loading Buffer. The plates were then incubated for 30 minutes at 37° C.
During the incubation, test compounds were prepared by adding 90 μL of HBSS/20 mM HEPES/0.1% BSA buffer to 2 μL of serially diluted compounds. To prepare serial dilutions, 10 mM stocks of compounds were prepared in 100% DMSO. The compound dilution plate was set up as follows: well #1 received 29 μL of stock compound and 31 μL DMSO; wells 2-10 received 40 μL of DMSO; mixed and transferred 20 μL of solution from well #1 into well #2; continued with 1:3 serial dilutions out 10 steps; transferred 2 μL of diluted compound into duplicate wells of 384 well “assay plate” and then added the 90 μL of buffer.
as §2

pIC50 (LPA3R): < 4.52 | inhibition at 30 µM ([1]; @ 30 μM): 85.5% | pIC50 ([1]; ChemiScreen calcium-optimized stable cell line, FLIPR calcium flux, antagonist mode): 6.06
SMILES: C[C@@H](CC(=O)Nc1c(-c2ccc(-c3ccc(C4(C(=O)O)CC4)cc3)cc2)cnn1C)c1ccccc1 [Example 25, 1-{4′-[1-Methyl-5-((S)-3-phenyl-butyrylamino)-1H-pyrazol-4-yl]-biphenyl-4-yl}-cyclopropanecarboxylic acid]

From patent publication US20150259295A1, “SUBSTITUTED PYRAZOLE COMPOUNDS AS LPAR ANTAGONISTS” (Hoffmann-La Roche Inc., priority 2012, published 2015)
